Laboratory results as given in PubChem BioAssay (NCI).
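Protocol summary: plate cells (96-well), add compound at 5 concentrations, incubate 48 h, interpolate endpoints linearly. GI50 marks 50% less growth. TGI: total growth inhibition.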

Columns and labels:
Test in all cases: DTP human tumour cell line panel, 48 h
A549 NSCLC = system: A549 NSCLC
EKVX NSCLC = system: EKVX NSCLC
HCC-2998 colon = system: HCC-2998 colon
NCI-H23 lung = system: NCI-H23 lung
OVCAR-5 ovarian = system: OVCAR-5 ovarian
OVCAR-8 ovarian = system: OVCAR-8 ovarian
SN12C renal = system: SN12C renal
UACC-62 melanoma = system: UACC-62 melanoma
MDA-MB-435 = system: MDA-MB-435
HOP-62 NSCLC = system: HOP-62 NSCLC

| SMILES | GI50 (A549 NSCLC) | TGI (A549 NSCLC) | GI50 (EKVX NSCLC) | TGI (EKVX NSCLC) | GI50 (HCC-2998 colon) | TGI (HCC-2998 colon) | GI50 (NCI-H23 lung) | TGI (NCI-H23 lung) | GI50 (OVCAR-5 ovarian) | TGI (OVCAR-5 ovarian) | GI50 (OVCAR-8 ovarian) | TGI (OVCAR-8 ovarian) | GI50 (SN12C renal) | TGI (SN12C renal) | GI50 (UACC-62 melanoma) | TGI (UACC-62 melanoma) | TGI (MDA-MB-435) | TGI (HOP-62 NSCLC) | GI50 (HOP-62 NSCLC) | GI50 (MDA-MB-435) |
| --- | --- | --- | --- | --- | --- | --- | --- | --- | --- | --- | --- | --- | --- | --- | --- | --- | --- | --- | --- | --- |
| COc1ccc(C(=O)C(c2ccc(OC)cc2)C2C(=O)Oc3ccccc32)cc1 (stereo not given) | > 100 µM | > 100 µM | > 100 µM | > 100 µM | > 100 µM | > 100 µM | > 100 µM | > 100 µM | > 100 µM | > 100 µM | > 100 µM | > 100 µM | > 100 µM | > 100 µM | > 100 µM | > 100 µM |  |  |  |  |
| CCOc1cc(C=O)c2c(ccc3ccc(OC)c(OC)c32)c1OC |  | > 100 µM |  | > 100 µM |  | > 100 µM |  | > 100 µM |  | > 100 µM |  | > 100 µM |  | > 100 µM |  | > 100 µM | > 100 µM |  |  |  |
| O=c1cc2n(c(=O)[nH]1)C1OC(C(O)C1O)[C@H]2CCO (stereo not given in full) |  | > 100 µM |  | > 100 µM |  |  |  | > 100 µM |  | > 100 µM |  | > 100 µM |  | > 100 µM |  | > 100 µM |  | > 100 µM |  |  |
| COc1ccc2nc3cc(Cl)ccc3c(NCCC(=O)OCC(O)C(O)C(O[C@H](C)C(=O)NC(C)C(=O)NC(CCC(N)=O)C(=O)OCc3ccccc3)C(C=O)NC(C)=O)c2c1 (stereo not given in full) |  | 32.4 µM |  | 36.9 µM |  | 33.6 µM |  | 27.5 µM |  | 47 µM |  | 30.5 µM |  | 31.4 µM |  | 34 µM |  | 33.9 µM |  |  |
| CCCn1cc(C2=C(c3cn(C)c4ccccc34)C(=O)NC2=O)c2ccccc21 | 1.86 µM | > 25 µM |  |  | 4.85 µM | > 25 µM | 2.67 µM | 17.8 µM | 6.76 µM | > 25 µM | 2.01 µM | > 19.6 µM | 2.43 µM | 6.47 µM | 1.63 µM | 5.94 µM | 0.691 µM | > 18.4 µM | 1.69 µM | 0.0992 µM |
| C[C@]12CCC3[C@@H](C[C@H]4OC(=O)[C@@]35CCC(=O)C=C45)C1CCC2=O (stereo not given in full) |  | > 100 µM |  | > 100 µM |  | > 100 µM |  | > 100 µM |  | > 100 µM |  | > 100 µM |  | > 100 µM |  |  |  |  |  |  |
| [N-]=[N+]=Nc1ccccc1-[n+]1noc([O-])c1Br |  | > 100 µM |  | > 100 µM |  |  |  | > 100 µM |  |  |  | > 100 µM |  | > 100 µM |  | > 100 µM |  | > 100 µM |  |  |
| O=C1CSC(=S)N1c1ccc(F)cc1F |  | > 100 µM |  | > 100 µM |  | > 100 µM |  | > 100 µM |  |  |  | > 100 µM |  | > 100 µM |  | > 100 µM | > 100 µM | > 100 µM |  |  |
| Cc1cc2cc(Cl)ccc2nc1C(=O)c1ccccc1 |  | > 100 µM |  |  |  | > 100 µM |  | > 100 µM |  | > 100 µM |  | > 100 µM |  | > 100 µM |  | > 100 µM |  | > 100 µM |  |  |
| Nc1nc(=O)n(C2CC(O)C(O)C(CO)O2)cc1F (stereo not given) |  | > 100 µM |  | > 100 µM |  | > 100 µM |  | > 100 µM |  | > 100 µM |  | > 100 µM |  | > 100 µM |  | > 100 µM |  | > 100 µM |  |  |
| COC(=O)CSc1ccccc1 |  | > 100 µM |  | > 100 µM |  | > 100 µM |  | > 100 µM |  | > 100 µM |  | > 100 µM |  | > 100 µM |  | > 100 µM |  | > 100 µM |  |  |
| COC(=O)CCC(=O)CC(=O)C(=O)Nc1ccc(F)cc1 |  | > 100 µM |  | > 100 µM |  | > 100 µM |  | > 100 µM |  | > 100 µM |  | > 100 µM |  | > 100 µM |  | > 100 µM |  | > 100 µM |  |  |
| N#Cc1ccc(/C=N\N2C(=O)c3ccccc3C2=O)cc1 |  | > 100 µM |  | > 100 µM |  | > 100 µM |  | > 100 µM |  | > 100 µM |  | > 100 µM |  | > 100 µM |  | > 100 µM |  | > 100 µM |  |  |
| C/C(=N\Nc1ccc2ccccc2n1)c1ccccc1O |  | > 100 µM |  | > 100 µM |  |  |  | > 100 µM |  | > 100 µM |  | > 100 µM |  | > 100 µM |  | > 100 µM | > 100 µM | > 47.9 µM |  |  |
| CNc1nnnn1C1OC(CO)C(O)C1O (stereo not given) |  | > 100 µM |  | > 100 µM |  | > 100 µM |  |  |  | > 100 µM |  | > 100 µM |  | > 100 µM |  | > 100 µM |  | > 100 µM |  |  |
| COc1c(OC(C)=O)c(OC(C)=O)cc2c1-c1ccc(OC)c(=O)cc1C(NC(C)=O)CC2 (stereo not given) |  | > 100 µM |  | > 100 µM |  | 24.8 µM |  | 5.24 µM |  | > 100 µM |  | > 70.1 µM |  | > 100 µM |  | > 100 µM |  | > 73 µM |  |  |
| COc1ccc(C(=O)/C(=N/Nc2ccccc2)c2ccc(OC)cc2)cc1 |  | > 100 µM |  | > 100 µM |  | > 100 µM |  | > 100 µM |  | > 100 µM |  | > 100 µM |  | > 100 µM |  | > 100 µM |  |  |  |  |
| Cn1cc(C2=C(c3c4n(c5ccccc35)CC(CN)C4)C(=O)NC2=O)c2ccccc21 (stereo not given) | 3.74 µM | 10.9 µM |  |  | 4.01 µM | 8.02 µM | 4.38 µM | 11.1 µM | 7.16 µM | 22.1 µM | 3.92 µM | 8.93 µM | 3.4 µM | 11 µM | 3.3 µM | 6.76 µM | 4.72 µM | 11 µM | 4.56 µM | 1.11 µM |
| COc1ccc(CN2C(=O)C(Cc3cc(OC)c(OC)c(C)c3OC)N(C(=O)OC(C)C)C(=O)/C2=C/c2cc(OC)c(OC)c(C)c2OC)cc1 (stereo not given) |  | > 100 µM |  | > 100 µM |  | > 100 µM |  | > 100 µM |  | > 100 µM |  | > 100 µM |  | > 100 µM |  | > 100 µM |  | > 100 µM |  |  |
| Cn1c(=O)nc2n(-c3ccc(F)cc3)c3ccccc3nc-2c1=O |  | 48.6 µM |  | 32 µM |  | 49.8 µM |  | 42.8 µM |  | 42.2 µM |  | 67.4 µM |  | 56.6 µM |  | 25 µM |  | > 100 µM |  |  |
| CCOC(=O)C1c2[nH]c3ccccc3c2CCN1C(=O)c1ccco1 (stereo not given) |  | > 10 µM |  | > 10 µM |  | > 10 µM |  |  |  |  |  | > 10 µM |  | > 10 µM |  | > 10 µM | > 10 µM | > 10 µM |  |  |
